Laboratory results published in US20130005802A1, “TREATMENT OF WNT/FRIZZLED-RELATED DISEASES” (priority 2009, published 2013).

Tested on: peripheral blood mononuclear cells (PBMCs)
Type: cell-based
Conditions: human, 3 days
Experimental: After 3 days incubation, all cells were harvested with 0.05% trypsin/EDTA and spun down by centrifugation. Cells were labeled with biotin-conjugated Annexin V, and then stained with 7-AAD and Streptavidin-APC. Samples were acquired by FACSCalibur machine (BD Bioscience) and analyzed with CellQuest software. Cells were analyzed for expression of Annexin V as a marker of apoptosis.
Annexin V may be used as a marker for apoptosis and other forms of cell death. […] After 3 days of incubation, all cells were harvested with 0.05% trypsin/EDTA, labeled with biotin-conjugated Annexin V, and then stained with 7-AAD and streptavidin-APC. Samples were acquired by FACSCalibur, and percentages of annexin V-positive cells were analyzed and plotted as shown in FIG. 11. Cells were analyzed for expression of Annexin V as a marker of apoptosis.

For O=C(Nc1ccc([N+](=O)[O-])cc1Cl)c1cc(Cl)ccc1O [niclosamide], the “doses at which apoptosis was shown (annexin V)” value was 10 to 20 µM.
